Where “and” joins values, the source holds several entries; their conditions need not be identical. Identical values can stand only once.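 Protocol summary: plate cells (96-well), add compound at 5 concentrations, incubate 48 h, interpolate endpoints linearly. Here, GI50 denotes the concentration required for 50% inhibition of growth. TGI marks complete inhibition of growth.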
How the values were obtained:
Test in all cases: NCI tumour cell line growth inhibition, 48 h
RPMI-8226 leukemia = tested on: RPMI-8226 leukemia
LXFL 529 NSCLC = tested on: LXFL 529 NSCLC
SK-MEL-28 melanoma = tested on: SK-MEL-28 melanoma
NCI/ADR-RES ovarian = tested on: NCI/ADR-RES ovarian
TK-10 renal = tested on: TK-10 renal
NCI-H522 lung = tested on: NCI-H522 lung
KM20L2 colon = tested on: KM20L2 colon
SW-620 colon = tested on: SW-620 colon
SNB-75 CNS = tested on: SNB-75 CNS
MCF7 breast = tested on: MCF7 breast
SF-268 CNS = tested on: SF-268 CNS
EKVX NSCLC = tested on: EKVX NSCLC
OVCAR-8 ovarian = tested on: OVCAR-8 ovarian
KM12 colon = tested on: KM12 colon
MDA-MB-231 breast = tested on: MDA-MB-231 breast
PC-3 prostate = tested on: PC-3 prostate
HCT-116 colon = tested on: HCT-116 colon
UACC-62 melanoma = tested on: UACC-62 melanoma
MDA-N = tested on: MDA-N
IGROV1 ovarian = tested on: IGROV1 ovarian
XF 498 CNS = tested on: XF 498 CNS
DLD-1 colon = tested on: DLD-1 colon
SN12C renal = tested on: SN12C renal
RXF 393 renal = tested on: RXF 393 renal
SK-MEL-2 melanoma = tested on: SK-MEL-2 melanoma
HCT-15 colon = tested on: HCT-15 colon
DU-145 prostate = tested on: DU-145 prostate
MALME-3M melanoma = tested on: MALME-3M melanoma
HOP-92 NSCLC = tested on: HOP-92 NSCLC
MDA-MB-435 = tested on: MDA-MB-435
UACC-257 melanoma = tested on: UACC-257 melanoma
SNB-19 CNS = tested on: SNB-19 CNS
HT29 colon = tested on: HT29 colon
CAKI-1 renal = tested on: CAKI-1 renal
SK-OV-3 ovarian = tested on: SK-OV-3 ovarian
K-562 leukemia = tested on: K-562 leukemia
NCI-H226 lung = tested on: NCI-H226 lung
SF-295 CNS = tested on: SF-295 CNS
MOLT-4 leukemia = tested on: MOLT-4 leukemia
ACHN renal = tested on: ACHN renal
M14 melanoma = tested on: M14 melanoma
M19-MEL melanoma = tested on: M19-MEL melanoma
U251 CNS = tested on: U251 CNS
RXF-631 renal = tested on: RXF-631 renal
BT-549 breast = tested on: BT-549 breast
CCRF-CEM leukemia = tested on: CCRF-CEM leukemia
DMS 114 small cell lung = tested on: DMS 114 small cell lung
OVCAR-3 ovarian = tested on: OVCAR-3 ovarian
786-0 renal = tested on: 786-0 renal
SR leukemia = tested on: SR leukemia
SNB-78 CNS = tested on: SNB-78 CNS
A498 renal = tested on: A498 renal
HCC-2998 colon = tested on: HCC-2998 colon
NCI-H460 lung = tested on: NCI-H460 lung
T-47D breast = tested on: T-47D breast
NCI-H23 lung = tested on: NCI-H23 lung
SK-MEL-5 melanoma = tested on: SK-MEL-5 melanoma
OVCAR-5 ovarian = tested on: OVCAR-5 ovarian
COLO 205 colon = tested on: COLO 205 colon
DMS 273 small cell lung = tested on: DMS 273 small cell lung
HOP-62 NSCLC = tested on: HOP-62 NSCLC
OVCAR-4 ovarian = tested on: OVCAR-4 ovarian
HS 578T breast = tested on: HS 578T breast
A549 NSCLC = tested on: A549 NSCLC
SF-539 CNS = tested on: SF-539 CNS
LOX IMVI melanoma = tested on: LOX IMVI melanoma
HL-60(TB) leukemia = tested on: HL-60(TB) leukemia
UO-31 renal = tested on: UO-31 renal
HOP-18 NSCLC = tested on: HOP-18 NSCLC
P388 leukemia = tested on: P388 leukemia
P388/ADR leukemia = tested on: P388/ADR leukemia
SN12K1 renal = tested on: SN12K1 renal

SMILES: CN(C)CCCNc1ccc2nnn3c4ccc([N+](=O)[O-])cc4c(=O)c1c23
- TGI (RPMI-8226 leukemia): 7.31 µM
- TGI (LXFL 529 NSCLC): 15 µM
- TGI (SK-MEL-28 melanoma): 17.2 µM
- TGI (NCI/ADR-RES ovarian): 3.09 µM
- TGI (TK-10 renal): 7.95 µM
- TGI (NCI-H522 lung): 17 µM
- TGI (KM20L2 colon): 9.69 µM
- TGI (SW-620 colon): 12.9 µM
- TGI (SNB-75 CNS): 8.55 µM
- TGI (MCF7 breast): 8.08 µM
- TGI (SF-268 CNS): 12 µM
- TGI (EKVX NSCLC): 12.9 µM
- TGI (OVCAR-8 ovarian): 5.38 µM
- TGI (KM12 colon): 4.53 µM
- TGI (MDA-MB-231 breast): 2.95 µM
- TGI (PC-3 prostate): 11.7 µM
- TGI (HCT-116 colon): 12.3 µM
- TGI (UACC-62 melanoma): 14.4 µM
- TGI (MDA-N): 15.9 µM
- TGI (IGROV1 ovarian): 13.3 µM
- TGI (XF 498 CNS): 11.4 µM
- TGI (DLD-1 colon): 14.4 µM
- TGI (SN12C renal): 9.5 µM
- TGI (RXF 393 renal): 4.25 µM
- TGI (SK-MEL-2 melanoma): 15 µM
- TGI (HCT-15 colon): 7.77 µM
- TGI (DU-145 prostate): 12.1 µM
- TGI (MALME-3M melanoma): 14.5 µM
- TGI (HOP-92 NSCLC): 7.45 µM
- TGI (MDA-MB-435): 12.3 µM
- TGI (UACC-257 melanoma): 16.7 µM
- TGI (SNB-19 CNS): 15.3 µM
- TGI (HT29 colon): 7.11 µM
- TGI (CAKI-1 renal): 12.9 µM
- TGI (SK-OV-3 ovarian): 16 µM
- TGI (K-562 leukemia): 21.9 µM
- TGI (NCI-H226 lung): 3.02 µM
- TGI (SF-295 CNS): 7.44 µM
- TGI (MOLT-4 leukemia): 5.63 µM
- TGI (ACHN renal): 5.92 µM
- TGI (M14 melanoma): 8.31 µM
- TGI (M19-MEL melanoma): 16.2 µM
- TGI (U251 CNS): 5.16 µM
- TGI (RXF-631 renal): 7.59 µM
- TGI (BT-549 breast): 19.2 µM
- TGI (CCRF-CEM leukemia): 12.1 µM
- TGI (DMS 114 small cell lung): 14.1 µM
- TGI (OVCAR-3 ovarian): 11 µM
- TGI (786-0 renal): 13 µM
- TGI (SR leukemia): 6.03 µM
- TGI (SNB-78 CNS): 16 µM
- TGI (A498 renal): 6.33 µM
- TGI (HCC-2998 colon): 10.4 µM
- TGI (NCI-H460 lung): 1.57 µM
- TGI (T-47D breast): 27.9 µM
- TGI (NCI-H23 lung): 8.61 µM
- TGI (SK-MEL-5 melanoma): 5.97 µM
- TGI (OVCAR-5 ovarian): 9.59 µM
- TGI (COLO 205 colon): 5.35 µM
- TGI (DMS 273 small cell lung): 6.89 µM
- TGI (HOP-62 NSCLC): 8.51 µM
- TGI (OVCAR-4 ovarian): 3.92 µM
- TGI (HS 578T breast): 14.2 µM
- TGI (A549 NSCLC): 3.06 µM
- TGI (SF-539 CNS): 14.2 µM
- TGI (LOX IMVI melanoma): 2.22 µM
- TGI (HL-60(TB) leukemia): 11.3 µM
- TGI (UO-31 renal): 9.5 µM
- TGI (HOP-18 NSCLC): 13.6 µM

SMILES: COc1cccc2c1C(=N)c1c(O)c3c(c(O)c1C2=O)C[C@@](O)(C(C)=O)C[C@@H]3OC1CC(N)C(O)C(C)O1 (stereo partly specified)
- TGI (LXFL 529 NSCLC): 3.54 µM
- TGI (SK-MEL-28 melanoma): 5.83 µM and 13.7 µM and 20.1 µM
- GI50 (NCI/ADR-RES ovarian): 0.466 µM
- GI50 (TK-10 renal): 0.234 µM
- TGI (TK-10 renal): 3.7 µM and 2.02 µM
- TGI (NCI-H522 lung): 2.4 µM and 1.13 µM and 1.91 µM
- TGI (SW-620 colon): 4.39 µM and 8.73 µM and 10.5 µM
- TGI (MCF7 breast): 24.8 µM and 13.4 µM
- TGI (SF-268 CNS): 3.07 µM and 4.61 µM and 5.69 µM
- TGI (EKVX NSCLC): 3.82 µM and 7.64 µM and 2.29 µM
- TGI (OVCAR-8 ovarian): 2.62 µM and 3.56 µM
- TGI (KM12 colon): 2.55 µM and 1.94 µM and 10.4 µM
- GI50 (MDA-MB-231 breast): 0.445 µM
- TGI (MDA-MB-231 breast): 2.18 µM
- TGI (PC-3 prostate): 2.98 µM
- TGI (HCT-116 colon): 1.77 µM and 2.53 µM and 10.4 µM
- TGI (UACC-62 melanoma): 1.61 µM and 1.9 µM and 2.61 µM
- GI50 (MDA-N): 1.15 µM
- TGI (MDA-N): 10.4 µM
- TGI (IGROV1 ovarian): 6.39 µM and 9.25 µM
- TGI (XF 498 CNS): 2.26 µM and 2.27 µM
- TGI (DLD-1 colon): 5.7 µM and 14.9 µM
- TGI (SN12C renal): 1.28 µM and 1.92 µM and 2.23 µM
- TGI (RXF 393 renal): 2.95 µM and 3.8 µM and 0.872 µM
- TGI (SK-MEL-2 melanoma): 4.6 µM and 6.27 µM and 1.23 µM
- TGI (HCT-15 colon): 28 µM and 32.8 µM
- GI50 (DU-145 prostate): 0.018 µM
- TGI (DU-145 prostate): 0.0618 µM
- TGI (MALME-3M melanoma): 1.83 µM and 5.14 µM and 2.21 µM
- TGI (HOP-92 NSCLC): 2.71 µM and 3.58 µM
- GI50 (MDA-MB-435): 1.1 µM
- TGI (MDA-MB-435): 4.47 µM
- TGI (UACC-257 melanoma): 5.01 µM and 12.1 µM and 6.67 µM
- TGI (HT29 colon): 7.19 µM and 4.43 µM and 1.71 µM
- TGI (CAKI-1 renal): 1.37 µM and 1.03 µM and 4.86 µM
- TGI (SK-OV-3 ovarian): 1.85 µM and 4.8 µM and 13.6 µM
- TGI (K-562 leukemia): 3.34 µM and 14.8 µM and 6.67 µM
- GI50 (ACHN renal): 0.472 µM
- GI50 (M14 melanoma): 0.705 µM and 0.206 µM
- TGI (M14 melanoma): 4.58 µM and 1.59 µM
- TGI (M19-MEL melanoma): 2.15 µM and 2.64 µM
- TGI (RXF-631 renal): 3.11 µM
- GI50 (BT-549 breast): 1.66 µM
- TGI (BT-549 breast): 16.2 µM
- TGI (CCRF-CEM leukemia): 0.473 µM and 0.975 µM
- TGI (DMS 114 small cell lung): 0.73 µM and 1.46 µM
- TGI (OVCAR-3 ovarian): 5.43 µM and 4.73 µM and 13 µM
- GI50 (P388 leukemia): 0.0425 µM
- GI50 (786-0 renal): 0.0766 µM
- GI50 (SR leukemia): 0.0196 µM
- TGI (SNB-78 CNS): 8.68 µM and 18.9 µM
- TGI (A498 renal): 3.06 µM and 6.52 µM and 1.88 µM
- TGI (HCC-2998 colon): 2.48 µM and 3.14 µM and 0.541 µM
- TGI (NCI-H460 lung): 2.01 µM and 2.11 µM and 0.239 µM
- GI50 (T-47D breast): 0.0174 µM
- TGI (T-47D breast): 4.86 µM
- TGI (NCI-H23 lung): 0.607 µM and 1.62 µM and 1.2 µM
- TGI (SK-MEL-5 melanoma): 1.55 µM and 1.74 µM and 1.98 µM
- GI50 (P388/ADR leukemia): 13.6 µM
- TGI (P388/ADR leukemia): 51.7 µM
- TGI (COLO 205 colon): 2.29 µM and 4.36 µM and 2.42 µM
- TGI (DMS 273 small cell lung): 1.65 µM and 1.86 µM
- TGI (OVCAR-4 ovarian): 7.58 µM and 7.84 µM and 8 µM
- TGI (A549 NSCLC): 0.926 µM and 1.46 µM and 1.01 µM
- TGI (SN12K1 renal): 3.05 µM
- TGI (HL-60(TB) leukemia): 0.287 µM and 0.192 µM
- TGI (HOP-18 NSCLC): 3.48 µM and 2.56 µM

From PubChem BioAssay (NCI)
